Each molecule was assayed against T1, IRAK4 (Homo sapiens, UniProt Q9NWZ3) (assay: OCI-LY-10 degradation assay (western blot, % IRAK4 degraded after 4 hours)). Conditions: OCI-LY10 cells, IRAK4 degraded after 4 hours, western blot.
T1 sequence (Q9NWZ3 1-460): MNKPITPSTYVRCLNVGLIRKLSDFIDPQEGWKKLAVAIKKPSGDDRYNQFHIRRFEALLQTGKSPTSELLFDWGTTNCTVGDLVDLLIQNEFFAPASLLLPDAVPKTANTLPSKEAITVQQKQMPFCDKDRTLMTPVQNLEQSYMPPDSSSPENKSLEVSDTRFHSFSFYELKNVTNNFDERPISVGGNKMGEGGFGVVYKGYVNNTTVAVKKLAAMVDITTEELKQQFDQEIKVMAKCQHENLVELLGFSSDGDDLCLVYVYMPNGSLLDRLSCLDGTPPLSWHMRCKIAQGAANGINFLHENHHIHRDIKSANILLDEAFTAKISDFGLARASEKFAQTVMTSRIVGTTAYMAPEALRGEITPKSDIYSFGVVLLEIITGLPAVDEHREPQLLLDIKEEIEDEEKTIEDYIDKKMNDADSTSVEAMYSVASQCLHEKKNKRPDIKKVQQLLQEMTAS
Type: cell-based
Set-up: endogenous in cells; host or cells: OCI-LY10
Description: Compounds were reconstituted in DMSO to make stock solutions at concentration of 60 mM. THP-1 and OCI-LY10 cells were maintained in RPMI-1640 medium containing 10% FBS, 0.5 μM 2-ME or 20% FBS, 55 μM 2-ME, and 1% L-Glutamine respectively.
Cells were seeded into 6-well plates with 5e6 cells per well. 200 μL of diluted compounds were added to cells to the final concentration of 0.003-10 μM. After 4 or 24 hour-incubation at 37° C., cells were collected into 2 mL Eppendorf tubes and centrifuged at 1,000 rpm for 5 min. The cell pellets were washed with 1×DPBS once and resuspended in 60 μL lysis buffer. The cells were lysed on ice for 10 min, then centrifuged at 14,000 rpm for 10 min at 4° C. and the supernatants were collected for western blots. For THP-1 cells, the lysis buffer contained 40 mM pH 7.4 HEPES, 140 mM NaCl, 2.5 mM EDTA, 1% NP-40, 0.1% SDS, and protease inhibitor cocktail (Roche, Cat. No. 05892791001). For OCI-LY10 cells, RIPAbuffer (Thermo Fisher, 89900) with Halt Protease and Phosphatase Inhibitor Cocktail (Thermo Fisher, 78446) was applied.
The protein concentration of cell lysates was quantified with Pierce™ BCA Protein Assay Kit (Pierce, 23227). Albumin standards at different concentrations were prepared, involving 2,000 ug/mL, 1,500 ug/mL, 1,000 ug/mL, 750 ug/mL, 500 ug/mL, 250 ug/mL, 125 ug/mL, and 25 ug/mL. BCA working reagents were prepared by mixing BCA reagent A with reagent B in 50:1 ratio. 200 μL of the BCA working reagents were added to 25 μL of BCA standard or cell lysates in microplate, and mixed thoroughly on a plate shaker for 30 seconds. After incubation at 37° C. for 30 min, the absorbance of samples at 562 nm were measured with EnVision Plate Reader.
Protein lysates were prepared in NuPAGE™ LDS sample buffer and NuPAGE™ sample reducing agent, and incubated at 95° C. for 5 min. For western blots, 20-25 μg of total proteins were resolved in 4-12% Bis-Tris gels (Introgen, WG1403A) or 10% Bis-Tris Midi gels (Invitrogen, WG1202BOX) running with 1×MOPS SDS running buffer (Invitrogen, NP0001) or 1×MES SDS running buffer (Invitrogen, NP0002). The proteins were transferred to low fluorescence PVDF membranes using the Trans-Blot Turbo Transfer System. Membranes were then blocked in Odyssey blocking buffer at RT for 1 h followed by primary incubation at 4° C. overnight. The primary antibodies were IRAK1 rabbit monoclonal antibody (CST, #4504S, 1:500), IRAK3 rabbit polyclonal antibody (CST, #4369, 1:500), IRAK4 rabbit polyclonal antibody (CST, #4363S, 1:1,000), MyD88 rabbit monoclonal antibody (Abcam, Ab133739, 1:2,000), j3-actin mouse monoclonal antibody (Sigma, A5441, 10,000), and Gapdh mouse monoclonal antibody (Millipore, MAB374, 1:5,000). Membranes were washed three times with 1×TBST, and then incubated with IR Dye 800 CW Goat anti-rabbit (Licor, #926-32211) and IR Dye 700 CW Goat anti-mouse (Licor, #926-68070) secondary antibodies in 1:10,000 dilution at RT for 1 h. The western blot images were obtained using Odyssey Imaging System.
OCI-LY-10 results at 4 hours. The letter codes indicate the percentage of IRAK4 degraded after 4 hours: A (>50% degradation), B (>20-50% degradation) and C (<20% degradation)
OCI-LY-10 results at 4 hours. The letter codes for % IRAK4 degradation indicate the percentage of IRAK4 degraded after 4 hours across three different concentrations: A (>50% degradation), B (>20-50% degradation) and C (<20% degradation).

SMILES | OCI-LY10 % IRAK4 Degradation
CC(COCC(F)CNC(=O)c1cnc(Nc2ccc3cnccc3n2)cc1NC1CC1)OCCOCCNc1cccc2c1C(=O)N(C1CCC(=O)NC1=O)C2=O (centres unmarked) [I-70] | C (<20% degradation)
CC(OCCOCCOCCOCCNc1cccc2c1C(=O)N(C1CCC(=O)NC1=O)C2=O)C(F)CNC(=O)c1cnc(-n2ncc3cc(C#N)cnc32)cc1NC1CC1 (centres unmarked) [I-71] | C (<20% degradation)
N#Cc1cnc2c(cnn2-c2cc(NC3CC3)c(C(=O)NCC(F)COCCOCCOCCOCCNc3cccc4c3C(=O)N(C3CCC(=O)NC3=O)C4=O)cn2)c1 (centres unmarked) [I-72] | C (<20% degradation)
CC(C)(OCCOCCOCCOCCNc1cccc2c1C(=O)N(C1CCC(=O)NC1=O)C2=O)C(F)CNC(=O)c1cnc(-n2ncc3cc(C#N)cnc32)cc1NC1CC1 (centres unmarked) [I-73] | C (<20% degradation)
CC(C)(OCCNc1cccc2c1C(=O)N(C1CCC(=O)NC1=O)C2=O)C(F)CNC(=O)c1cnc(Nc2ccc3cnccc3n2)cc1NC1CC1 (centres unmarked) [I-74] | C (<20% degradation)
CC(C)(OCCNc1cccc2c1C(=O)N(C1CCC(=O)NC1=O)C2=O)C(F)CNC(=O)c1cnc(-n2ncc3cc(C#N)cnc32)cc1NC1CC1 (centres unmarked) [I-75] | C (<20% degradation)
N#Cc1cnc2c(cnn2-c2cc(NC3CC3)c(C(=O)NCC(F)COCCOCCNc3cccc4c3C(=O)N(C3CCC(=O)NC3=O)C4=O)cn2)c1 (centres unmarked) [I-76] | C (<20% degradation)
CC(OCCNc1cccc2c1C(=O)N(C1CCC(=O)NC1=O)C2=O)C(F)CNC(=O)c1cnc(Nc2ccc3cnccc3n2)cc1NC1CC1 (centres unmarked) [I-77] | C (<20% degradation)
CC[C@@H]1[C@H](F)C(=O)N[C@@H]1COc1nccc2cc(C(=O)NCCOCCOCCOCCOCCNc3cccc4c3C(=O)N(C3CCC(=O)NC3=O)C4=O)c(OC)cc12 (some centres unmarked) [I-78] | C (<20% degradation)
CC(C)(OCCOCCNc1cccc2c1C(=O)N(C1CCC(=O)NC1=O)C2=O)C(F)CNC(=O)c1cnc(-n2ncc3cc(C#N)cnc32)cc1NC1CC1 (centres unmarked) [I-79] | C (<20% degradation)
CC(C)(OCCOCCNc1cccc2c1C(=O)N(C1CCC(=O)NC1=O)C2=O)C(F)CNC(=O)c1cnc(Nc2ccc3cnccc3n2)cc1NC1CC1 (centres unmarked) [I-80] | C (<20% degradation)
O=C1CCC(N2C(=O)c3cccc(NCCOCC(F)CNC(=O)c4cnc(Nc5ccc6cnccc6n5)cc4NC4CC4)c3C2=O)C(=O)N1 (centres unmarked) [I-81] | C (<20% degradation)
N#Cc1cnc2c(cnn2-c2cc(NC3CC3)c(C(=O)NCC(F)COCCNc3cccc4c3C(=O)N(C3CCC(=O)NC3=O)C4=O)cn2)c1 (centres unmarked) [I-82] | C (<20% degradation)
CC(OCCNc1cccc2c1C(=O)N(C1CCC(=O)NC1=O)C2=O)C(F)CNC(=O)c1cnc(-n2ncc3cc(C#N)cnc32)cc1NC1CC1 (centres unmarked) [I-83] | C (<20% degradation)
CC(OCCOCCNc1cccc2c1C(=O)N(C1CCC(=O)NC1=O)C2=O)C(F)CNC(=O)c1cnc(Nc2ccc3cnccc3n2)cc1NC1CC1 (centres unmarked) [I-84] | C (<20% degradation)
CC(OCCOCCNc1cccc2c1C(=O)N(C1CCC(=O)NC1=O)C2=O)C(F)CNC(=O)c1cnc(-n2ncc3cc(C#N)cnc32)cc1NC1CC1 (centres unmarked) [I-85] | C (<20% degradation)
CC(C)(OCCCOCCCNc1cccc2c1C(=O)N(C1CCC(=O)NC1=O)C2=O)C(F)CNC(=O)c1cnc(-n2ncc3cc(C#N)cnc32)cc1NC1CC1 (centres unmarked) [I-86] | C (<20% degradation)
CC[C@@H]1[C@H](F)C(=O)N[C@@H]1COc1nccc2cc(C(=O)NCCOCCOCCNc3cccc4c3C(=O)N(C3CCC(=O)NC3=O)C4=O)c(OC)cc12 (some centres unmarked) [I-87] | C (<20% degradation)
N#Cc1cnc2c(cnn2-c2cc(NC3CC3)c(C(=O)NCC(F)CCOCCOCCOCCNc3cccc4c3C(=O)N(C3CCC(=O)NC3=O)C4=O)cn2)c1 (centres unmarked) [I-88] | C (<20% degradation)
CC[C@@H]1[C@H](F)C(=O)N(CCOCCOCCOCCOCCNc2cccc3c2C(=O)N(C2CCC(=O)NC2=O)C3=O)[C@@H]1COc1nccc2cc(C(N)=O)c(OC)cc12 (stereo partly drawn) [I-89, 1-[[(2S,3S,4S)-1-[2-[2-[2-[2-[2-[[2-(2,6-dioxo-3-piperidyl)-1,3-dioxo-isoindolin-4-yl]amino]ethoxy]ethoxy]ethoxy]ethoxy]ethyl]-3-ethyl-4-fluoro-5-oxo-pyrrolidin-2-yl]methoxy]-7-methoxy-isoquinoline-6-carboxamide] | C (<20% degradation)
NC(=O)[C@@H](O)C[C@H]1CCc2sc3ncnc(O[C@H]4CC[C@H](N5CCN(CCOCCOCCNc6cccc7c6C(=O)N(C6CCC(=O)NC6=O)C7=O)CC5)CC4)c3c21 (stereo partly drawn) [I-90, (2S)-3-[(8R)-1-[4-[4-[2-[2-[2-[[2-(2,6-dioxo-3-piperidyl)-1,3-dioxo-isoindolin-4-yl]amino]ethoxy]ethoxy]ethyl]piperazin-1-yl]cyclohexoxy]-7,8-dihydro-6H-cyclopenta[4,5]thieno[1,2-c]pyrimidin-8-yl]-2-hydroxy-propanamide] | B (>20-50% degradation)
NC(=O)[C@H](O)C[C@H]1CCc2sc3ncnc(O[C@H]4CC[C@H](N5CCN(CCOCCOCCNc6cccc7c6C(=O)N(C6CCC(=O)NC6=O)C7=O)CC5)CC4)c3c21 (stereo partly drawn) [I-91, (2R)-3-[(8R)-1-[4-[4-[2-[2-[2-[[2-(2,6-dioxo-3-piperidyl)-1,3-dioxo-isoindolin-4-yl]amino]ethoxy]ethoxy]ethyl]piperazin-1-yl]cyclohexoxy]-7,8-dihydro-6H-cyclopenta[4,5]thieno[1,2-c]pyrimidin-8-yl]-2-hydroxy-propanamide] | C (<20% degradation)
NC(=O)c1nn(-c2ccc(COCCOCCOCCNc3cccc4c3C(=O)N(C3CCC(=O)NC3=O)C4=O)cc2)cc1NC(=O)c1coc(-c2ccnc(NCC(F)(F)F)c2)n1 (centres unmarked) [I-92, N-[3-carbamoyl-1-[4-[2-[2-[2-[[2-(2,6-dioxo-3-piperidyl)-1,3-dioxo-isoindolin-4-yl]amino]ethoxy]ethoxy]ethoxymethyl]phenyl]pyrazol-4-yl]-2-[2-(2,2,2-trifluoroethylamino)-4-pyridyl]oxazole-4-carboxamide] | A (>50% degradation)

Source: US10874743B2, “IRAK degraders and uses thereof” (Kymera Therapeutics, Inc., priority 2017, dated 2020)
